From patent publication US4497742A, “Isomerization of β-lactam compounds” (Takeda Chemical Industries, Ltd., priority 1981, dated 1985)
Counter-ions that a name gives are not always drawn. Like-named read-outs stand apart in the source and are kept apart here.

Columns and labels:
beta-Lactamase [1] = molecular target: T1, beta-Lactamase (Enterobacter cloacae, UniProt P05364); test: beta-Lactamase-inhibitory activity, producing strain Enterobacter cloacae TN 1282; assay type: biochemical; conditions: read-out: beta-Lactamase-inhibitory activity [1D50] (converted)
T1 construct: endogenous in cells; host or cells: Enterobacter cloacae TN 1282 (producing strain)

beta-Lactamase [2] = molecular target: T2, beta-Lactamase (Staphylococcus aureus, UniProt P00807); test: beta-Lactamase-inhibitory activity, producing strain Staphylococcus aureus 1840; assay type: biochemical; conditions: read-out: beta-Lactamase-inhibitory activity [1D50] (converted)
T2 construct: endogenous in cells; host or cells: Staphylococcus aureus 1840 (producing strain)

beta-Lactamase [3] = test: beta-Lactamase-inhibitory activity, producing strain Escherichia coli TN 713; assay type: biochemical
beta-Lactamase [4] = test: beta-Lactamase-inhibitory activity, producing strain Proteus vulgaris GN 4413; assay type: biochemical
[5] = system: Staphylococcus aureus FDA 209P; test: Antimicrobial spectrum (MIC), Staphylococcus aureus FDA 209P; assay type: cell-based; conditions: FDA209P
[6] = system: Proteus vulgaris IFO 3988; test: Antimicrobial spectrum (MIC), Proteus vulgaris IFO 3988; assay type: cell-based; conditions: IFO3988
[7] = system: Escherichia coli NIHJ J2C; test: Antimicrobial spectrum (MIC), Escherichia coli NIHJ J2C; assay type: cell-based; conditions: NIHJJ2C
[8] = system: Salmonella typhimurium IFO 12529; test: Antimicrobial spectrum (MIC), Salmonella typhimurium IFO 12529; assay type: cell-based; conditions: Salmonella enterica
[9] = Proteus vulgaris IFO 3988, read-out: MIC

T2 sequence (P00807 25-281): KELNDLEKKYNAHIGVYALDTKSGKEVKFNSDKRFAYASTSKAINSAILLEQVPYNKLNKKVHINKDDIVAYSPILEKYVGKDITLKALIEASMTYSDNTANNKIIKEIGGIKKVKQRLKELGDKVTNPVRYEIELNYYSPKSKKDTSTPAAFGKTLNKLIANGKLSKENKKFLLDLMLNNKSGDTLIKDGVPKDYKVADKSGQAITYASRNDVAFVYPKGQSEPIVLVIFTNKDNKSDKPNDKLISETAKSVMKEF
T1 sequence (P05364 21-381): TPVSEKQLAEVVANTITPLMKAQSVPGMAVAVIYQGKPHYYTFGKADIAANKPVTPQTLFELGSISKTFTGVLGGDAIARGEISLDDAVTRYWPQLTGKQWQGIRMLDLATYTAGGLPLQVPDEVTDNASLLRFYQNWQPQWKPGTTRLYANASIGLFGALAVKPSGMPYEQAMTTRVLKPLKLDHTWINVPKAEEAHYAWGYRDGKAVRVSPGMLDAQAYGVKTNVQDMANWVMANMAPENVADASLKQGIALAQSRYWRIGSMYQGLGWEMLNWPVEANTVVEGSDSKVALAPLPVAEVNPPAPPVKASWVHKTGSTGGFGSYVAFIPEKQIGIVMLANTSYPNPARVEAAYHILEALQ

| SMILES | IC50 (beta-Lactamase [1]) [µM] | IC50 (beta-Lactamase [2]) [µM] | beta-Lactamase-inhibitory activity [1D50] (beta-Lactamase [3]) [µg/mL] | beta-Lactamase-inhibitory activity [1D50] (beta-Lactamase [4]) [µg/mL] | MIC [5] [µg/mL] | MIC ([6]; Proteus vulgaris) [µg/mL] | MIC [7] [µg/mL] | MIC [8] [µg/mL] | MIC [6, 9] [µg/mL] |
| --- | --- | --- | --- | --- | --- | --- | --- | --- | --- |
| CC(=O)N/C=C\[S@@+]([O-])C1=C(C(=O)[O-])N2C(=O)[C@@H](C(C)(C)O)[C@H]2C1.[Na+] [Ia, sodium [5R, 6R]-3-[(Z)-2-acetamidoethenyl-(R)-sulfinyl]-6-[1-hydroxy-1-methylethyl]-7-oxo-1-azabicyclo(3,2,0)-hept-2-ene-2-carboxylate] | 0.0137 | 0.151 | 0.0016 | 0.00105 | 0.39 | – | – | – | – |
| CC(=O)N/C=C\SC1=C(C(=O)[O-])N2C(=O)[C@@H](C(C)(C)O)[C@H]2C1.[Na+] [Ig, sodium [5R, 6R]-3-[(Z)-2-acetamidoethenyl-thio]-6-[1-hydroxy-1-methyl-ethyl]-7-oxo-1-azabicyclo(3,2,0)-hept-2-ene-2-carboxylate] | 0.0861 | – | 0.010 | 0.017 | 0.625 | 5 | 2.5 | 2.5 | – |
| CC(=O)N/C=C\[S@@+]([O-])C1=C(C(=O)O)N2C(=O)[C@@H](C(C)(C)OS(=O)(=O)O)[C@H]2C1 [Ib, [5R, 6R]-3-[(Z)-2-acetamidoethenyl-(R)-sulfinyl]-6-(1-hydroxysulfonyloxy-1-methylethyl)-7-oxo-1-azabicyclo (3,2,0)-hept-2-ene-2-carboxylic acid disodium salt] | 0.036 | 0.568 | 0.0001175 | 0.00055 | 2.5 | – | 20 | 20 | 40 |
| CC(=O)N/C=C\SC1=C(C(=O)O)N2C(=O)[C@@H](C(C)(C)OS(=O)(=O)O)[C@H]2C1 [Ih, [5R, 6R]-3-[(Z)-2-acetamidoethenyl-thio]-6-[1-hydroxysulfonyloxy-1-methyl-ethyl]-7-oxo-1-azabicyclo(3,2,0)-hept-2-ene-2-carboxylic acid disodium salt] | 0.00787 | 2.46 | 0.017 | 0.0038 | 2.5 | – | 40 | 20 | < 40 |
